Entries after “also recorded” stand apart in the source; their conditions may differ.
Tests used:
[1] = molecular target: T1, MMP3 (Rattus norvegicus, UniProt P03957); test: NFF-3 fluorescence assay in C6-13 (C6-Cx43) glioma conditioned media; format: biochemical; conditions: 50 μM and 100 μM, over six hours, relative to untreated controls
T1 construct: endogenous in cells; host or cells: C6-13 (C6 glioma clone stably expressing Cx43), conditioned serum-free medium
T1 sequence (P03957 98-475): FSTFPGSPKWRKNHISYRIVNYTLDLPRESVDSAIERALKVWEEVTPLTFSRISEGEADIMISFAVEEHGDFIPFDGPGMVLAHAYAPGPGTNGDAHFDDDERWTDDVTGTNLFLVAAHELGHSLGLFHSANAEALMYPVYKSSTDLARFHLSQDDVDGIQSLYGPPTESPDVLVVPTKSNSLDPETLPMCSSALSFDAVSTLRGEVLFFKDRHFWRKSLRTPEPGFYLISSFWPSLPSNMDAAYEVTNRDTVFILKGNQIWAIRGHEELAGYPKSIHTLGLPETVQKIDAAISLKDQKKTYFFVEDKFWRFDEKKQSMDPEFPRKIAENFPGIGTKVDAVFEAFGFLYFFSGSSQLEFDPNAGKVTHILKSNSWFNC
Procedure: Glioma Cell Culture. […] Anal Bioanal Chem 2010, 398 (1), 477-87). […] Zymography. […] SDS-PAGE/Western Blotting. Conditioned media was collected and chilled on ice. […] Proteins were pelleted by centrifugation (12 minutes, 4800 g). Proteins were suspended in SDS-PAGE loading buffer. […] NFF-3 Fluorescence Assay. […] After conditioning, the media was collected. Each experimental condition had its own control condition. […] The experiment was conducted at 37° C. […] The docking of MMP Inhibitors.
The synthesis of the MMP Inhibitors and NFF3 analysis. The leucine-tryptophan (Leu-Trp) backbone, AP-1, and AP-2 were synthesized. All synthesized compounds were analyzed by mass spectrometry (FIG. 3). The NFF-3 assay was used to determine the biological inhibition of MMP-3 activity for ilomastat and synthesized compounds, Leu-Trp, and AP-1 relative to untreated controls. […] Linear responses of MMP3 activity was robustly measured from about 30 to about 300 minutes. All compounds were tested at a concentration of 50 μM and 100 μM, and compared to determine MMP3 suppression. From FIG. 6, concentration dependent inhibition was observed.

[2] = molecular target: T1, MMP3; test: Gelatin zymography of C6-13 conditioned media; format: cell-based; conditions: ilomastat 0-100 uM, 0.1% gelatin
Excerpt: (§1) Glioma Cell Culture. The C6 glioma line (American Type Culture Collection, ATCC) maintains many characteristics of GBM including cancer stem cell behavior ability to generate GBMs in rats upon injection in the brain (Grobben, B.; De Deyn, P. P.; Slegers, H., Rat C6 glioma as experimental model system for the study of glioblastoma growth and invasion. Cell Tissue Res 2002, 310 (3), 257-70; Zheng, X.; Shen, G.; Yang, X.; Liu, W., Most C6 cells are cancer stem cells: evidence from clonal and population analyses. Cancer Res 2007, 67 (8), 3691-7; and Beljebbar, A.; Dukic, S.; Amharref, N.; Manfait, M., Ex vivo and in vivo diagnosis of C6 glioblastoma development by Raman spectroscopy coupled to a microprobe. Anal Bioanal Chem 2010, 398 (1), 477-87). […] Cell Mol Neurobiol 1992, 12 (2), 163-75.) Glioma cells were maintained at 37° C., 95% air and 5% CO2 in a humidified incubator. Cells were cultivated in high glucose DMEM (4.0 g/L, ThermoFisher Scientific) containing L-glutamine (4.0 mM), antibiotics (penicillin, 100 IU/mL; streptomycin, 100 μg/mL) and 10% fetal bovine serum (FBS; Gibco). For collection of conditioned media, cells were plated in 6-well plate (200,000 cells/well) and grown to 80% confluency over the course of 3 days. […] Protein concentration was determined by BCA assay and samples suspended in SDS loading buffer (no DTT and without boiling). […]

[3] = tested on: C6 glioma cells; conditions: ≤100 uM, propidium iodide stain, data not shown
Excerpt: as §1

SMILES | Inhibition of MMP-3 activity (NFF-3 fluorescence) [1] | Loss of MMP3 activity (zymography) [2] | Cell death [3] [%]
CNC(=O)[C@H](Cc1c[nH]c2ccccc12)NC(=O)[C@@H](CC(=O)NO)CC(C)C [Ilomastat] | perform better than Leu-Trp at inhibiting MMP-3 | concentration-dependent inhibition of secreted MMP3; also recorded: dose-dependent loss of MMP3 activity | < 1
CC(C)C[C@H](N)C(=O)N[C@@H](Cc1c[nH]c2ccccc12)C(=O)O [Leu-Trp] | can act as a competitive inhibitor |  | 

From US20230104690A1, “MATRIX METALLOPROTEINASE INHIBITORS (MMPIs)” (Brandon University, priority 2020, published 2023)
